Values joined by “and” are separate entries in the source; they are usually repeats but may differ in a detail not shown here. Equal values may be shown once.
Tested on: acetic acid-induced writhing (visceral pain) in mice
Test: Acetic acid writhing (AAW) analgesic assay
Assay type: in vivo
Experimental: An analgesic assay was used to determine whether a given compound can reduce and/or prevent visceral pain in mice. The assay utilizes Swiss Albino or CD-1 male mice (5-10 mice per group), each mouse being approximately 0.015-0.030 kg on the study day. Mice were treated according to standard protocols.
The animal was given an intraperitoneal (IP) injection of an irritant (acetic acid) that induces “writhing” which may include: contractions of the abdomen, twisting and turning of the trunk, arching of the back and the extension of the hindlimbs. Mice are given a single IP injection (0.1 mL/10 g bodyweight) of a 0.5% acetic acid solution. After the injection the animals were returned to their observation enclosure and their behavior was observed. Contractions were counted between 0 and 20 minutes after the injection. The animals were used once. In certain instances, the test articles were administered at multiple doses to determine a dose response curve.
Table 4 provides the results for certain compounds of the present invention that were administered subcutaneously. Table 5 provides the results for certain compounds of the present invention that were administered orally.

| SMILES | inhibition in vivo at 30 mg/kg (Mus musculus, sc, subcutaneous, 30 mg/kg, read-out: AAW % Efficacy) [%] | AAW % Efficacy (subcutaneous, 3 mg/kg) | AAW % Efficacy (subcutaneous, 10 mg/kg) [%] | AAW % Efficacy (subcutaneous, 30 mg/kg) [%] | AAW % Efficacy (oral, 10 mg/kg) [%] | AAW % Efficacy (subcutaneous, 0.3 mg/kg) [%] |
| --- | --- | --- | --- | --- | --- | --- |
| COCCOCCOCCOCCOCCOc1cccc(Nc2ccc3c(c2)[C@]2(C)CCN(CC4CC4)[C@H](C3=O)[C@@H]2C)c1 [Example 8, (2S,6R,11R)-8-((3-(2,5,8,11,14-pentaoxahexadecan-16-yloxy)phenyl)amino)-3-(cyclopropylmethyl)-6,11-dimethyl-3,4,5,6-tetrahydro-2,6-methanobenzo[d]azocin-1(2H)-one] | 100 | 38.0% |  |  |  |  |
| COCCNC(=O)c1ccc2c(c1)[C@]1(C)CCN(CC3CC3)[C@H](C2=O)[C@@H]1C [Example 16, (2S,6R,11R)-3-(cyclopropylmethyl)-N-(2-methoxyethyl)-6,11-dimethyl-1-oxo-1,2,3,4,5,6-hexahydro-2,6-methanobenzo[d]azocine-8-carboxamide] |  |  | 26.4 |  |  |  |
| COCCOCCOCCOCCOCCNc1ccc(Nc2ccc3c(c2)[C@]2(C)CCN(CC4CC4)[C@H](C3=O)[C@@H]2C)cc1 [Example 10, (2S,6R,11R)-8-((4-(2,5,8,11,14-pentaoxahexadecan-16-ylamino)phenyl)amino)-3 (cyclopropylmethyl)-6,11-dimethyl-3,4,5,6-tetrahydro-2,6-methanobenzo[d]azocin-1(2H)-one] |  | 34.0% |  | 100.0 |  |  |
| COCCOCCOCCOCCOCCOc1ccccc1Nc1ccc2c(c1)[C@]1(C)CCN(CC3CC3)[C@H](C2=O)[C@@H]1C [Example 7, (2S,6R,11R)-8-((2-(2,5,8,11,14-pentaoxahexadecan-16-yloxy)phenyl)amino)-3-(cyclopropylmethyl)-6,11-dimethyl-3,4,5,6-tetrahydro-2,6-methanobenzo[d]azocin-1(2H)-one] |  | 38.8% |  | 84.8 |  |  |
| COCCOCCOCCOCCOCCOc1ccc(Nc2ccc3c(c2)[C@]2(C)CCN(CC4CC4)[C@H](C3=O)[C@@H]2C)cc1 [Example 9, (2S,6R,11R)-8-((4-(2,5,8,11,14-pentaoxahexadecan-16-yloxy)phenyl)amino)-3-(cyclopropylmethyl)-6,11-dimethyl-3,4,5,6-tetrahydro-2,6-methanobenzo[d]azocin-1(2H)-one] |  | 67.8% and 61.4% | 95.4 | 99.2 | 38.5 | 13.3 |
| COCCOCCOCCOCCOCCNc1cccc(Nc2ccc3c(c2)[C@]2(C)CCN(CC4CC4)[C@H](C3=O)[C@@H]2C)c1 [Example 11, (2S,6R,11R)-8-((3-(2,5,8,11,14-pentaoxahexadecan-16-ylamino)phenyl)amino)-3-(cyclopropylmethyl)-6,11-dimethyl-3,4,5,6-tetrahydro-2,6-methanobenzo[d]azocin-1(2H)-One] |  | 62.2% and 64.3% | 99.1 | 100.0 | 31.2 | 21.1 |
| COCCOCCN1CC[C@@]2(C)c3cc(O)ccc3C(=O)[C@@H]1[C@@H]2C [Example 14, (2S,6R,11R)-8-hydroxy-3-(2-(2-methoxyethoxy)ethyl)-6,11-dimethyl-3,4,5,6-tetrahydro-2,6-methanobenzo[d]azocin-1(2H)-One] |  |  | 13.2 |  |  |  |
| COCCOCCOCCOCCOCCOc1c(O)ccc2c1[C@]1(C)CCN(CC3CC3)[C@H](C2=O)[C@@H]1C [Example 19, (2S,6R,11R)-7-(2,5,8,11,14-pentaoxahexadecan-16-yloxy)-3-(cyclopropylmethyl)-8-hydroxy-6,11-dimethyl-3,4,5,6-tetrahydro-2,6-methanobenzo[d]azocin-1(2H)-one] |  |  | 31.6 |  |  |  |
| COCCOCC(=O)Nc1ccc2c(c1)[C@]1(C)CCN(CC3CC3)[C@H](C2=O)[C@@H]1C [Example 15, N-((2S,6R,11R)-3-(cyclopropylmethyl)-6,11-dimethyl-1-oxo-1,2,3,4,5,6-hexahydro-2,6-methanobenzo[d]azocin-8-yl)-2-(2-methoxyethoxy)acetamide] |  |  | 100.0 |  |  |  |

Reference: patent publication US10081602B2, “Opioid agonists and uses thereof” (Nektar Therapeutics, priority 2013, dated 2018)
